# Test results from ChEMBL document CHEMBL1201862, “PubChem BioAssay data set” (2004).
# Calls of active or inactive are those of the source.
# How the values were obtained:
# [1] = target: T1, Heat shock factor protein 1 (Mus musculus, UniProt P38532); assay: enhancement of HSF1-driven luciferase signal – cell-based, NIH3T3, luminescence, dose retest, confirmation (AID 435004); format: functional;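 also: stress induced by proteasome inhibitor MG132 added 30 min after compound; luciferase reporter driven by HSF1 response element in NIH3T3 cells; actives raise luminescence as potentiators of the MG132 stress response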
# T1 sequence (P38532 whole entry): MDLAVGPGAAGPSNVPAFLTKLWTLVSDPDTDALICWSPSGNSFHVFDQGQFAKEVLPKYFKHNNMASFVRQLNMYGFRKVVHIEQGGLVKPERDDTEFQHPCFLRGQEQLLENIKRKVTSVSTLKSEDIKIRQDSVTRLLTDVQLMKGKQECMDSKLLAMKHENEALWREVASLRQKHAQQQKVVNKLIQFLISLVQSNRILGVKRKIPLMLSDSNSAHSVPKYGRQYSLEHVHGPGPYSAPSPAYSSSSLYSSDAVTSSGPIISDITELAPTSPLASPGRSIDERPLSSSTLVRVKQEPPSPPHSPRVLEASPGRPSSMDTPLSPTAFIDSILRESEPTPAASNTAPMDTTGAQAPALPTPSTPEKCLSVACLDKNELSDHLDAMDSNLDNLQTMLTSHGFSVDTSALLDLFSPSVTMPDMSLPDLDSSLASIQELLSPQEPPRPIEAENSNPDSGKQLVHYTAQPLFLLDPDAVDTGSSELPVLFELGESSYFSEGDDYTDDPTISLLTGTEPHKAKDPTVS
# [2] = target: Glyceraldehyde-3-phosphate dehydrogenase (Homo sapiens, UniProt P04406)
# Cytochrome P450 3A4 = Cytochrome P450 3A4 (Homo sapiens, UniProt P08684);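 also: CYP3A4 tested as one member of a cytochrome P450 panel screen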
# SN12K1 = assay: cells; format: functional; conditions: Homo sapiens
# P388 = assay: cells; format: functional; conditions: Mus musculus
# P388/ADR = assay: cells; format: functional; conditions: Mus musculus
# Paired box protein Pax-8 = Paired box protein Pax-8 (Homo sapiens, UniProt Q06710); assay: PAX8 transcriptional activity inhibition in RMG-I – RMG-I cells, luciferase, cherry-pick, dose response (AID 687027); format: functional, cell-based;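 also: luciferase reporter driven by Pax8 target thyroperoxidase promoter measured by SteadyGlo luminescence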
# Paired box protein Pax-8, sequence (Q06710 whole entry): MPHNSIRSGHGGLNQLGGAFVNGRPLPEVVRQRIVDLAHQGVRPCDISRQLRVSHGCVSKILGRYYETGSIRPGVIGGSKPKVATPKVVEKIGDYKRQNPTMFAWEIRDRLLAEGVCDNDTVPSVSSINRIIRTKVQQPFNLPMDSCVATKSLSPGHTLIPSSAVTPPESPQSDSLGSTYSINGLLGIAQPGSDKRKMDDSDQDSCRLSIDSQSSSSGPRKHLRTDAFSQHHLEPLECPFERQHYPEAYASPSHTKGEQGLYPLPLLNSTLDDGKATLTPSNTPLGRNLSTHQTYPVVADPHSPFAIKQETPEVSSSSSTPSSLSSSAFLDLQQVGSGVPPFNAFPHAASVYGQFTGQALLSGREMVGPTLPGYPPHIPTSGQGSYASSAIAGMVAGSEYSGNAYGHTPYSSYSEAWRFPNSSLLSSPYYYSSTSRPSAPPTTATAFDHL
# Cytochrome P450 3A4, sequence (P08684 whole entry): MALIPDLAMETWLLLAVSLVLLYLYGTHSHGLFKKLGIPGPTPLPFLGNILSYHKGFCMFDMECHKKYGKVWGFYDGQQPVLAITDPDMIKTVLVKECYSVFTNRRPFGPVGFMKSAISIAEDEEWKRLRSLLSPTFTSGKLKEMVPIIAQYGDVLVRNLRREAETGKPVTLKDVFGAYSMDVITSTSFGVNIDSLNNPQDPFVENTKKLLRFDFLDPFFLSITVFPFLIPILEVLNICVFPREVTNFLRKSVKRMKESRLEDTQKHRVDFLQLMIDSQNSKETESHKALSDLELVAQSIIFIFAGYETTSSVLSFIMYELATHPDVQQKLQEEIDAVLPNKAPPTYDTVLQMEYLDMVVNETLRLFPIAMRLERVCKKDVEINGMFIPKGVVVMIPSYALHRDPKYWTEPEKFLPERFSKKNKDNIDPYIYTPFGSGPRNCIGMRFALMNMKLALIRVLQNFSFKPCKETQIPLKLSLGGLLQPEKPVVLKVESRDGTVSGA
# Glyceraldehyde-3-phosphate dehydrogenase, sequence (P04406 whole entry): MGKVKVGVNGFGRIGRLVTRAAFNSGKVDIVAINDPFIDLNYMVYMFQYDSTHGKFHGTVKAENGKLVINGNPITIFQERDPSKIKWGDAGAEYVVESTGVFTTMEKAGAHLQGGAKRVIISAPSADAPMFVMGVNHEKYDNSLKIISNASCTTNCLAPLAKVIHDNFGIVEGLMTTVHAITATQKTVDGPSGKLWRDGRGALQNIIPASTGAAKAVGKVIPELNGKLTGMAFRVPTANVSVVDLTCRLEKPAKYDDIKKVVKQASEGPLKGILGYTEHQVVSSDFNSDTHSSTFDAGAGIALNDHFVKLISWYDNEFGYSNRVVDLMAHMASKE
SMILES,GI50 (SN12K1),GI50 (P388),GI50 (P388/ADR),also measured
COC(=O)c1cn(CCOc2ccc(C)cc2)c2ccccc12,–,–,–,EC50 [1]: > 260 µM (inactive)
Cc1ccc(N2NC(=O)/C(=C/c3c(C)c(C#N)c4nc5ccccc5n4c3O)C2=O)cc1C,–,–,–,IC50 [2]: > 100 µM (not active)
COC(=O)N1CCC2(CCCN(Cc3ccccc3OC)C2)CC1,–,–,–,AC50 (Cytochrome P450 3A4): 6.31 µM (inconclusive)
CC(C)[C@H](NC(N)=O)C(=O)NNC(=O)COc1cccc(C(F)(F)F)c1,–,–,–,EC50 [1]: > 260 µM (inactive)
CCOC(=O)N1CCN(C(=O)c2cnc3n(c2=O)CCS3)CC1,–,–,–,EC50 [1]: > 260 µM (inactive)
COc1cccc2c1C(=O)c1c(O)c3c(c(O)c1C2=O)C[C@@](O)(C(=O)CO)C[C@@H]3OC1CC(N2CCOCC2)C(O)C(C)O1 (stereo partly specified),0.00366 µM (active),0.0025 µM (active),0.00136 µM (active),–
CC(=O)OC1CC2(O)C(CCC3(C)C(c4ccc(=O)oc4)CCC32O)C2(C)C1=CC(O)C1OC12 (stereo unspecified),0.0424 µM (active),46.1 µM (inactive),79.1 µM (inactive),–
CCCCOc1ccc(-c2nc(/C=N/c3nccs3)c(O)o2)cc1,–,–,–,EC50 [1]: > 260 µM (inactive)
CN(C)CCNC(=O)c1cccc2ccc(-c3ccc(O)cc3)nc12,0.637 µM (active),–,–,–
C=C1C(=O)O[C@H]2[C@H]1[C@@H](OC(=O)C=C(C)C)CC1=C[C@@H](C[C@@]3(C)O[C@@H]23)OC1=O,6.46 µM (inactive),0.139 µM (active),–,–
O=P1(c2ccccc2)Nc2ccccc2SSc2ccccc2N1,15.3 µM (inactive),0.839 µM (active),7.45 µM (inactive),–
C=CCC(O[Si](C)(C)C(C)(C)C)c1cc(O[Si](C)(C)C(C)(C)C)ccc1OC (stereo unspecified),> 100 µM (inactive),22.2 µM (inactive),> 100 µM (inactive),–
C=CCc1cccc(/C=N\N/C(N)=N/O)c1O,2.01 µM (inactive),1.19 µM (inactive),0.78 µM (active),–
Cc1ccc2cc3cccc(C(=O)NCCN(C)C)c3nc2c1,0.426 µM (active),0.257 µM (active),0.252 µM (active),–
COc1ccc(CN(C)C[C@H]2Oc3ccc(NC(=O)Nc4ccc5c(c4)OCO5)cc3CC(=O)N([C@H](C)CO)C[C@H]2C)cc1,–,–,–,AC50 (Paired box protein Pax-8): 62.3 µM (active)
C[C@@H]1CCCCO[C@H](CN(C)C(=O)c2ccccc2)[C@@H](C)CN([C@@H](C)CO)C(=O)c2cc(NC(=O)Nc3ccc(C(F)(F)F)cc3)ccc2O1,–,–,–,AC50 (Paired box protein Pax-8): 3.72 µM (active)
C[C@H](CO)N1C[C@H](C)[C@H](CN(C)Cc2ccc3c(c2)OCO3)OCCCC[C@H](C)Oc2ccc(NS(=O)(=O)c3ccc(Cl)cc3)cc2C1=O,–,–,–,AC50 (Paired box protein Pax-8): 9.86 µM (active)
CN1C[C@@H]2[C@H](c3ccccc31)[C@H](CO)N2Cc1ccccc1Cl,–,–,–,AC50 (Paired box protein Pax-8): 50.5 µM (active)
C[C@@H]1[C@@H]2[C@@H](C=C3C4CCC5Cc6nc7c(nc6C[C@@]5(C)C4C[C@H](O)[C@]32CO)CC2CCC3C4=C[C@H]5O[C@@]6(OC(C)(CO)C[C@@H]6O)[C@H](C)[C@@]5(O)[C@]4(C)[C@@H](O)CC3[C@]2(C)C7)O[C@]12CCC(C)(C)O2 (stereo partly specified),0.000365 µM (active),0.000365 µM (active),0.0918 µM (active),–
COc1ccc(N[C@@H]2c3cc4c(cc3C(c3cc(OC)c(O)c(OC)c3)[C@H]3C(=O)OCC32)OCO4)cc1OC (stereo partly specified),–,< 0.01 µM (active),0.269 µM (active),–
COc1ccc(/N=C2/S/C(=C\c3ccc(C)s3)C(=O)N2CC(C)C)cc1,–,–,–,AC50 (Cytochrome P450 3A4): 5.01 µM (inconclusive)
CNC(=O)OCc1nc(SC2CCCCO2)n(C)c1COC(=O)NC (stereo unspecified),> 100 µM (inactive),> 100 µM (inactive),> 100 µM (inactive),–
COc1ccc(C)cc1S(=O)(=O)Nc1cnc2ccccc2c1,–,–,–,IC50 [2]: > 100 µM (not active)
